According to PubChem BioAssay AID588384 (NMMLSC, 2011):
pEC50: −log10 of the molar value. Activity calls are given as the source filed them.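 Rule for the calls: active = half-maximal concentration at most 10 µM and% response shifting at least 30 points across doses; inactive = the rest.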

Biological target: Cell division control protein 42 homolog (Homo sapiens) (UniProt P60953)
Experiment: inhibitors of activated Cdc42 GTP binding, SAR follow-up, selectivity assay for Rab7 inhibitor project, biochemical, activated mutant, bead multiplex, flow cytometry, round 1 (AID 588384)
Details: GST-Cdc42 act beads, fluorescent GTP binding

Sequence of Cell division control protein 42 homolog (Homo sapiens) (P60953 whole entry, looked up): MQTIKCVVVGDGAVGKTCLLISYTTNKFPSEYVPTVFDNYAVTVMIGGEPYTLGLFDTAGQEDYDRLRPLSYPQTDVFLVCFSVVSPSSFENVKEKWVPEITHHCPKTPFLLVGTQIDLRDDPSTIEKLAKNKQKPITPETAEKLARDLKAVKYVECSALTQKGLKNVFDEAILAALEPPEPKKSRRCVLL

pEC50 | Structure (SMILES)
7.29 | CC1(C)Cc2c(sc(NC(=S)NC(=O)c3ccccc3F)c2C(=O)O)CO1
7.05 | CC1Cc2c(sc(NC(=S)NC(=O)c3ccccc3)c2C(=O)O)CO1 (stereo unspecified)
6.97 | CC1(C)CCc2sc(NC(=S)NC(=O)c3ccccc3)c(C(=O)O)c2C1
6.69 | COc1ccc(C(=O)NC(=S)Nc2sc3c(c2C(=O)O)CC(C)(C)OC3)cc1
6.54 | CC1(C)Cc2c(sc(NC(=S)NC(=O)c3ccc(Br)cc3)c2C(=O)O)CO1
7.36 | O=C(NC(=S)Nc1sc2c(c1C(=O)O)CCOC2)c1ccccc1
6.33 | CC1(C)Cc2c(sc(NC(=O)NC(=O)c3ccccc3)c2C(=O)O)CO1
7.27 | CC1(C)Cc2c(sc(NC(=S)NC(=O)c3ccccc3Br)c2C(=O)O)CO1
6.49 | CC1(C)Cc2c(sc(NC(=S)NC(=O)c3cccc(F)c3)c2C(=O)O)CO1
5.25 | CC1(C)Cc2c(sc(NC(=S)NC(=O)c3cccc(Br)c3)c2C(=O)O)CO1
7.27 | COc1cccc(C(=O)NC(=S)Nc2sc3c(c2C(=O)O)CC(C)(C)OC3)c1

Same assay, conditions: GST-Cdc42 act beads, fluorescent GTP binding, at 100 µM (top of the series)

% response (lower = inhibition) | Structure (SMILES)
inactive | CCOC(=O)c1c(N)sc2ccccc12
inactive | CC1(C)Cc2c(sc(NC(=O)Cc3ccccc3)c2C(=O)O)CO1
inactive | COC(=O)c1c(NC(=S)NC(=O)c2ccccc2)sc2c1CC(C)(C)OC2
inactive | CN1CCc2c(sc(NC(=O)Nc3ccc(F)cc3)c2C(=O)O)C1
inactive | CCOC(=O)c1c(NC(=O)NC(C)(C)C)sc2c1CCN(C)C2
inactive | CCOC(=O)c1c(NC(=O)Nc2ccc(C)cc2)sc2c1CCN(C)C2
inactive | CC1(C)Cc2c(sc(NC(=S)Nc3ccccc3)c2C(=O)O)CO1
inactive | COC(=O)c1c(N)sc2c1CC(C)(C)OC2
inactive | Cc1ccc(Nc2nc3sc4c(c3c(=O)o2)CCN(C)C4)cc1
inactive | CC(C)(C)OC(=O)c1c(NC(=S)NC(=O)c2ccccc2)sc2c1CCOC2
inactive | Cc1ccc(NC(=O)Nc2sc3c(c2C(=O)O)CCN(C)C3)cc1
inactive | CCOC(=O)c1c(NC(=S)Nc2ccccc2)sc2c1CC(C)(C)OC2
inactive | CCOC(=O)c1c(NC(=O)Nc2ccc(F)cc2)sc2c1CCN(C)C2
inactive | CN1CCc2c(sc3nc(Nc4ccc(F)cc4)oc(=O)c23)C1
inactive | CCOC(=O)c1c(NC(=S)NC(=O)c2ccccc2)sc2ccccc12
